Legend:
Test in all cases: relative viability (nuclei count vs DMSO), 5 days (fraction); higher = more cells survive
NCI-H647 = tested on: NCI-H647
In short: (§1)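 Five library-drug doses in √10 steps were combined with a fixed anchor-drug dose, or a single drug was given alone, by pin tool to lung cancer cell lines in 1536-well plates the day after seeding. Nuclei were stained and counted after 5 days. Relative viability is the nuclei count in treated wells over that in vehicle wells, taken as the median of duplicate plates.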

NCI-H1355 = tested on: NCI-H1355
In short: as §1

NCI-H1792 = tested on: NCI-H1792
In short: as §1

NCI-H522 = tested on: NCI-H522
In short: as §1

SK-LU-1 = tested on: SK-LU-1
In short: as §1

HARA = tested on: HARA
In short: as §1

EKVX = tested on: EKVX
In short: as §1

NCI-H661 = tested on: NCI-H661
In short: as §1

NCI-H2009 = tested on: NCI-H2009
In short: as §1

LOU-NH91 = tested on: LOU-NH91
In short: as §1

SK-MES-1 = tested on: SK-MES-1
In short: as §1

NCI-H2170 = tested on: NCI-H2170
In short: as §1

NCI-H2342 = tested on: NCI-H2342
In short: as §1

NCI-H1734 = tested on: NCI-H1734
In short: as §1

NCI-H2087 = tested on: NCI-H2087
In short: as §1

NCI-H2405 = tested on: NCI-H2405
In short: as §1

NCI-H1993 = tested on: NCI-H1993
In short: as §1

NCI-H1437 = tested on: NCI-H1437
In short: as §1

BEN = tested on: BEN
In short: as §1

HCC-827 = tested on: HCC-827
In short: as §1

HCC-366 = tested on: HCC-366
In short: as §1

NCI-H1395 = tested on: NCI-H1395
In short: as §1

COc1nc(C)cnc1NS(=O)(=O)c1cccnc1-c1ccc(-c2nnco2)cc1 [Zibotentan] + Nc1ncn([C@H]2C[C@H](O)[C@@H](CO)O2)c(=O)n1 [Decitabine] (partner 2 µM)
relative viability (NCI-H647; first compound 0.08 µM): 0.438
relative viability (NCI-H647; first compound 0.253 µM): 0.341
relative viability (NCI-H647; first compound 0.8 µM): 0.448
relative viability (NCI-H647; first compound 2.53 µM): 0.509
relative viability (NCI-H1355; first compound 0.08 µM): 0.346
relative viability (NCI-H1355; first compound 0.253 µM): 0.337
relative viability (NCI-H1355; first compound 0.8 µM): 0.368
relative viability (NCI-H1355; first compound 2.53 µM): 0.35
relative viability (NCI-H1792; first compound 0.08 µM): 0.491
relative viability (NCI-H1792; first compound 0.253 µM): 0.549
relative viability (NCI-H1792; first compound 0.8 µM): 0.547
relative viability (NCI-H1792; first compound 2.53 µM): 0.575
relative viability (NCI-H522; first compound 0.08 µM): 0.677
relative viability (NCI-H522; first compound 0.253 µM): 0.5
relative viability (NCI-H522; first compound 0.8 µM): 0.718
relative viability (NCI-H522; first compound 2.53 µM): 0.756
relative viability (SK-LU-1; first compound 0.08 µM): 0.805
relative viability (SK-LU-1; first compound 0.253 µM): 0.688
relative viability (SK-LU-1; first compound 0.8 µM): 0.722
relative viability (SK-LU-1; first compound 2.53 µM): 0.642
relative viability (HARA; first compound 0.08 µM): 0.551
relative viability (HARA; first compound 0.8 µM): 0.515
relative viability (HARA; first compound 2.53 µM): 0.497
relative viability (EKVX; first compound 0.08 µM): 0.325
relative viability (EKVX; first compound 0.253 µM): 0.339
relative viability (EKVX; first compound 0.8 µM): 0.286
relative viability (EKVX; first compound 2.53 µM): 0.346
relative viability (NCI-H661; first compound 0.08 µM): 0.557
relative viability (NCI-H661; first compound 0.253 µM): 0.529
relative viability (NCI-H661; first compound 0.8 µM): 0.57
relative viability (NCI-H661; first compound 2.53 µM): 0.552
relative viability (NCI-H2009; first compound 0.08 µM): 0.404
relative viability (NCI-H2009; first compound 0.253 µM): 0.398
relative viability (NCI-H2009; first compound 0.8 µM): 0.417
relative viability (NCI-H2009; first compound 2.53 µM): 0.377
relative viability (LOU-NH91; first compound 0.08 µM): 0.799
relative viability (LOU-NH91; first compound 0.253 µM): 0.78
relative viability (LOU-NH91; first compound 0.8 µM): 0.879
relative viability (LOU-NH91; first compound 2.53 µM): 0.815
relative viability (SK-MES-1; first compound 0.08 µM): 0.389
relative viability (SK-MES-1; first compound 0.253 µM): 0.285
relative viability (SK-MES-1; first compound 0.8 µM): 0.447
relative viability (SK-MES-1; first compound 2.53 µM): 0.365
relative viability (NCI-H2170; first compound 0.08 µM): 0.449
relative viability (NCI-H2170; first compound 0.253 µM): 0.463
relative viability (NCI-H2170; first compound 0.8 µM): 0.341
relative viability (NCI-H2170; first compound 2.53 µM): 0.463
relative viability (NCI-H2342; first compound 0.08 µM): 0.659
relative viability (NCI-H2342; first compound 0.253 µM): 0.776
relative viability (NCI-H2342; first compound 0.8 µM): 0.707
relative viability (NCI-H2342; first compound 2.53 µM): 0.71
relative viability (NCI-H1734; first compound 0.08 µM): 0.486
relative viability (NCI-H1734; first compound 0.253 µM): 0.496
relative viability (NCI-H1734; first compound 0.8 µM): 0.513
relative viability (NCI-H1734; first compound 2.53 µM): 0.541
relative viability (NCI-H2087; first compound 0.08 µM): 0.342
relative viability (NCI-H2087; first compound 0.253 µM): 0.287
relative viability (NCI-H2087; first compound 0.8 µM): 0.325
relative viability (NCI-H2087; first compound 2.53 µM): 0.331
relative viability (NCI-H2405; first compound 0.08 µM): 0.764
relative viability (NCI-H2405; first compound 0.253 µM): 0.684
relative viability (NCI-H2405; first compound 0.8 µM): 0.767
relative viability (NCI-H2405; first compound 2.53 µM): 0.73
relative viability (NCI-H1993; first compound 0.08 µM): 0.639
relative viability (NCI-H1993; first compound 0.253 µM): 0.576
relative viability (NCI-H1993; first compound 0.8 µM): 0.521
relative viability (NCI-H1993; first compound 2.53 µM): 0.61
relative viability (NCI-H1437; first compound 0.08 µM): 0.534
relative viability (NCI-H1437; first compound 0.253 µM): 0.545
relative viability (NCI-H1437; first compound 0.8 µM): 0.564
relative viability (NCI-H1437; first compound 2.53 µM): 0.556
relative viability (BEN; first compound 0.08 µM): 0.784
relative viability (BEN; first compound 0.253 µM): 0.691
relative viability (BEN; first compound 0.8 µM): 0.734
relative viability (BEN; first compound 2.53 µM): 0.646
relative viability (HCC-827; first compound 0.08 µM): 0.341
relative viability (HCC-827; first compound 0.253 µM): 0.333
relative viability (HCC-827; first compound 0.8 µM): 0.341
relative viability (HCC-827; first compound 2.53 µM): 0.343
relative viability (HCC-366; first compound 0.08 µM): 0.391
relative viability (HCC-366; first compound 0.253 µM): 0.317
relative viability (HCC-366; first compound 0.8 µM): 0.331
relative viability (HCC-366; first compound 2.53 µM): 0.358
relative viability (NCI-H1395; first compound 0.08 µM): 0.736
relative viability (NCI-H1395; first compound 0.253 µM): 0.68
relative viability (NCI-H1395; first compound 0.8 µM): 0.708
relative viability (NCI-H1395; first compound 2.53 µM): 0.674

From the supplement of paper PMC10307832
